From US20090239840A1, “AMINO SUBSTITUTED DIARYL[a,d]CYCLOHEPTENE ANALOGS AS [sequence] AGONISTS AND METHODS OF TREATMENT OF NEUROPSYCHIATRIC DISORDERS” (ACADIA PHARMACEUTICALS, INC., priority 2003, published 2009)
Read-outs that look alike come from different tables or passages of the source.

Assays:
muscarinic M2 receptor = target: T1, muscarinic M2 receptor (Homo sapiens, UniProt P08172); experiment: R-SAT functional screen, M2; format: cell-based; conditions: for Emax: read-out: M2 eff (efficacy)
T1 construct: expressed in transfected cells
T1 sequence (P08172 1-466): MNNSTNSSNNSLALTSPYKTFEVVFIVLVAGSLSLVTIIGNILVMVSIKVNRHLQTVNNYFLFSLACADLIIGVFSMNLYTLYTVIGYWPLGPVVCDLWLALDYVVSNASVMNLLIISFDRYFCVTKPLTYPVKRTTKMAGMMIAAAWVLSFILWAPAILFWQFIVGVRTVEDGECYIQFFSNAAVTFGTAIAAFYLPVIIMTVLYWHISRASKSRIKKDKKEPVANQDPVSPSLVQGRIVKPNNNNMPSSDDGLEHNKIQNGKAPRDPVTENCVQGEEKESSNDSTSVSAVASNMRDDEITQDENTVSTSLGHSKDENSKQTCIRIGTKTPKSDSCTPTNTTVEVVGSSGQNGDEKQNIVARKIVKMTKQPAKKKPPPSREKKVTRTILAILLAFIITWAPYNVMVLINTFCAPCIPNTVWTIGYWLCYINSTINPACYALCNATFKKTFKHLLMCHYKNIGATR
Method: (§1) Several compounds disclosed herein were evaluated for activity at muscarinic receptors using Receptor Selection and Amplification Technology (R-SAT) as described in U.S. Pat. No. 5,707,798, the disclosure of which is incorporated herein by reference in its entirety. The efficacy (eff) and potency (expressed as pEC50) of these compounds are presented in Table 1 at M1, M2, and M3 receptors.

muscarinic M1 receptor = target: T2, muscarinic M1 receptor (Homo sapiens, UniProt P11229); experiment: R-SAT functional screen, M1; format: cell-based; conditions: for Emax: read-out: M1 eff (efficacy)
T2 construct: expressed in transfected cells
T2 sequence (P11229 1-460): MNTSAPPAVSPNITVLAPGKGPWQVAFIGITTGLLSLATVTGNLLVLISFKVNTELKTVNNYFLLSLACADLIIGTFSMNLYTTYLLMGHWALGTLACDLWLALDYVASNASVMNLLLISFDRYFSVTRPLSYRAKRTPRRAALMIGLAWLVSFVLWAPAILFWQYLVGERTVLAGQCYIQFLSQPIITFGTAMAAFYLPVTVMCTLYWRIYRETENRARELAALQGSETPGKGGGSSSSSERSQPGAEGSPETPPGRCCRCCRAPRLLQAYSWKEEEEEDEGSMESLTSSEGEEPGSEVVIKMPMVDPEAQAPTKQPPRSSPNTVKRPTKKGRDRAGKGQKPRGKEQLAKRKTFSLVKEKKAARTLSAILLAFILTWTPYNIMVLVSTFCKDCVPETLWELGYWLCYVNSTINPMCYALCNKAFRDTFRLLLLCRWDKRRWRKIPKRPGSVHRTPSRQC
Method: as §1

[1] = R-SAT, read-out: M1 pEC50 (converted)
[2] = R-SAT, read-out: M2 pEC50 (converted)

Row | Structure (SMILES) | Emax (muscarinic M2 receptor; R-SAT) [%] | Emax (muscarinic M1 receptor; R-SAT) [%] | EC50 (muscarinic M1 receptor; [1]) [nM] | further results
1 | Clc1ccc2c(c1)N=C(N1CCCCC1)c1ccccc1N2 [8-Chloro-11-(piperidin-1-yl)-5H-dibenzo[b,e][1,4]diazepine] | 9 | 47 | 1580 | 
2 | Clc1ccc2c(c1)C(N1CCNCC1)=Nc1ccccc1N2 [2-Chloro-11-(piperazin-1-yl)-5H-dibenzo[b,e][1,4]diazepine] | 8 | -5 |  | 
3 | CN(C)CCNC1=Nc2cc(F)ccc2Nc2ccccc21 [N′-(8-Fluoro-5H-dibenzo[b,e][1,4]diazepine-11-yl)-N,N-dimethyl-ethane-1,2-diamine] | 21 | 7 |  | 
4 | Clc1ccc2c(c1)C=C(N1CCNCC1)c1ccccc1N2 [2-Chloro-10-piperazin-1-yl-5H-dibenzo[b,f]azepin] | 3 | 2 |  | 
5 | Clc1ccc2c(c1)N=C(N1CCNCC1)c1ccc(Cl)cc1N2 [3,8-Dichloro-11-(piperazin-1-yl)-5H-dibenzo[b,e][1,4]diazepine] | 58 | 34 | 126 | EC50 (muscarinic M2 receptor; [2]): 1580 nM
6 | Clc1ccc2c(c1)N=C(N1CCNCC1)c1ccccc1N2Cc1ccccc1 | 16 | 41 | 501 | 
7 | Clc1ccc2c(c1)N=C(c1cn[nH]c1)c1ccccc1N2 [8-Chloro-11-(1H-pyrazol-4-yl)-5H-dibenzo[b,e][1,4]diazepine] | 3 | 9 |  | 
8 | Fc1ccc2c(c1)N=C(N1CCCNCC1)c1ccccc1N2 [8-Fluoro-11-[1,4]diazepam-1-yl-5H-dibenzo[b,e][1,4]diazepine] |  |  |  | EC50 (muscarinic M2 receptor): 251 nM; Emax (muscarinic M2 receptor): 67%; EC50 (muscarinic M1 receptor): 200 nM; Emax (muscarinic M1 receptor): 25%
9 | O=S(=O)(Oc1ccc2c(c1)C(N1CCNCC1)=Nc1ccccc1O2)C(F)(F)F [2-(Trifluoromethanesulfonyloxy)-11-(piperazin-1-yl)-5H-dibenzo[b,e][1,4]oxazepine] | 4 | -11 |  | 
10 | Cc1ccc2c(c1)C(N1CCNCC1)=Nc1cc(Br)ccc1N2 [8-Bromo-2-methyl-11-(piperazin-1-yl)-5H-dibenzo[b,e][1,4]diazepine] | 44 | 8 |  | 
11 | Fc1ccc2c(c1)C(N1CCNCC1)=Nc1cc(Cl)ccc1N2 [8-Chloro-2-fluoro-11-(piperazin-1-yl)-5H-dibenzo[b,e][1,4]diazepine] | 121 | 32 | 158 | EC50 (muscarinic M2 receptor; [2]): 3160 nM
12 | c1ccc2c(c1)Sc1cc3c(cc1N=C2N1CCNCC1)OCCO3 [11-(piperazin-1-yl)-2,3-dihydro-1,4-benzodioxino[6,7-b][1,4]benzothiazepin] | 28 | 6 |  | 
13 | Cc1ccc2c(c1)N=C(N1CCNCC1)c1ccccc1N2 [8-Methyl-11-(piperazin-1-yl)-5H-dibenzo[b,e][1,4]diazepine] | 98 | 49 | 158 | EC50 (muscarinic M2 receptor; [2]): 1000 nM
14 | Cc1ccc2c(c1)C(N1CCNCC1)=Nc1ccccc1N2 [2-Methyl-11-(piperazin-1-yl)-5H-dibenzo[b,e][1,4]diazepine] | 9 | 1 |  | 
15 | Clc1ccc2c(c1)N=C(N1CCNCC1)c1cc(Br)ccc1N2 [2-Bromo-8-chloro-11-(piperazin-1-yl)-5H-dibenzo[b,e][1,4]diazepine] | 19 | 6 |  | 
16 | Clc1ccc2c(c1)N=C(N1CCCNCC1)c1ccccc1N2 [8-Chloro-11-[1,4]diazepam-1-yl-5H-dibenzo[b,e][1,4]diazepine] |  |  |  | EC50 (muscarinic M2 receptor): 631 nM; Emax (muscarinic M2 receptor): 82%; EC50 (muscarinic M1 receptor): 100 nM; Emax (muscarinic M1 receptor): 37%
17 | Clc1ccc2c(c1)Nc1ccc(Br)cc1N=C2N1CCNCC1 [8-Bromo-3-chloro-11-(piperazin-1-yl)-5H-dibenzo[b,e][1,4]diazepine] | 34 | 31 | 251 | EC50 (muscarinic M2 receptor; [2]): 316 nM

Row | Structure (SMILES) | Emax (muscarinic M2 receptor; R-SAT) [%] | Emax (muscarinic M1 receptor; R-SAT) [%] | EC50 (muscarinic M1 receptor; [1]) [nM] | further results
18 | Clc1ccc2c(c1)Nc1ccc(Cl)cc1C(N1CCNCC1)=N2 [2,7-Dichloro-11-(piperazin-1-yl)-5H-dibenzo[b,e][1,4]diazepine] | -14 | -2 |  | 
19 | FC(F)(F)c1ccc2c(c1)N=C(N1CCNCC1)c1ccccc1N2 [11-(piperazin-1-yl)-8-trifluoromethyl-5H-dibenzo[b,e][1,4]diazepine] | 131 | 53 | 316 | EC50 (muscarinic M2 receptor; [2]): 3160 nM
20 | NC1CCN(C2=Nc3cc(Cl)ccc3Nc3ccccc32)CC1 [1-(8-Chloro-5H-dibenzo[b,e][1,4]diazepin-11-yl)-piperidine-4-yl-amine] | 95 | 6 |  | EC50 (muscarinic M2 receptor; [2]): 2510 nM
21 | Clc1ccc2c(c1)N=C(NC[C@H]1CCCN1)c1ccccc1N2 [(8-Chloro-5H-dibenzo[b,e][1,4]diazepin-11-yl)-(R)-1-pyrrolidin-2-yl-methyl-amine] | 5 | 4 |  | 
22 | CCN(CC)CCNC1=Nc2cc(Cl)ccc2Nc2ccccc21 [N′-(8-Chloro-5H-dibenzo[b,e][1,4]diazepine-11-yl)-N,N-diethyl-ethane-1,2-diamine] | 9 | 6 |  | 
23 | Clc1ccc2c(c1)N=C(C1CCNCC1)c1ccccc1N2Cc1ccccc1 [5-Benzyl-8-chloro-11-(piperidin-4-yl)-5H-dibenzo[b,e][1,4]diazepine] | 5 | 12 |  | 
24 | Clc1ccc2c(c1)Nc1cc(Cl)ccc1C(N1CCNCC1)=N2 [3,7-Dichloro-11-(piperazin-1-yl)-5H-dibenzo[b,e][1,4]diazepine] | 19 | 15 |  | 
25 | Ic1ccc2c(c1)N=C(N1CCNCC1)c1ccccc1N2 [8-Iodo-11-(piperazin-1-yl)-5H-dibenzo[b,e][1,4]diazepine] | 187 | 75 | 63.1 | EC50 (muscarinic M2 receptor; [2]): 1000 nM
26 | CC1CC(N2CCNCC2)=Nc2cc(Br)ccc2N1 (stereo not shown) [7-Bromo-2-methyl-(piperazin-1-yl)-2,3-dihydro-1H-benzo[b][1,4]diazepine] | 23 | 16 |  | 
27 | Brc1ccc2c(c1)N=C(N1CCNCC1)CC(c1ccccc1)N2 (stereo not shown) [7-Bromo-2-phenyl-4-(piperazine-1-yl)-2,3-dihydro-1H-benzo[b][1,4]diazepine] | 19 | 3 |  | 
28 | Fc1ccc(CC2=Nc3cc(Cl)ccc3Nc3ccccc32)cc1 [8-Chloro-11-(4-fluorobenzyl)-5H-dibenzo[b,e][1,4]diazepine] | 7 | 3 |  | 
29 | Clc1ccc2c(c1)N=C(C1CCNCC1)c1ccccc1N2 [8-Chloro-11-(piperidin-4-yl)-5H-dibenzo[b,e][1,4]diazepine] | 31 | 57 | 631 | EC50 (muscarinic M2 receptor; [2]): 2000 nM
30 | Cc1ccc2c(c1)C(N1CCNCC1)=Nc1cc(C(F)(F)F)ccc1N2 [2-Methyl-11-(piperazin-1-yl)-8-trifluoromethyl-5H-dibenzo[b,e][1,4]diazepine] | 14 | 15 |  | 
31 | c1ccc2c(c1)N=C(N1CCCNCC1)c1ccccc1N2 [11-[1,4]Diazepam-1-yl-5H-dibenzo[b,e][1,4]diazepine] |  |  |  | Emax (muscarinic M2 receptor): 25%; Emax (muscarinic M1 receptor): 18%
32 | Clc1ccc2c(c1)Nc1ccccc1C(N1CCNCC1)=N2 [7-Chloro-11-(piperazin-1-yl)-5H-dibenzo[b,e][1,4]diazepine] | 53 | 48 | 251 | 
33 | Clc1ccc2c(c1)N=C(N1CCOCC1)c1ccccc1N2 [8-Chloro-11-(morpholin-4-yl)-5H-dibenzo[b,e][1,4]diazepine] | 6 | 11 |  | 
